Where a name gives a salt, the structure may show the parent alone.
Key:
[1] = target: presynaptic dopamine receptor; assay: dopamine binding assay in vitro: displacement of 3H-ADTN from calf-caudate nucleus membranes; set-up: species or system calf (bovine); details: 0.2 nM 3H-ADTN, 60 minutes at 25° C.
Procedure: The presynaptic dopamine receptor binding properties indicative of the presynaptic dopamine receptor regulatory, e.g. agonistic activity, of the compounds of the invention are determined in the dopamine binding assay in vitro by the following method involving the displacement of the dopamine agonist 2-amino-6,7-dihydroxy-1,2,3,4-tetrahydronaphthalene (^3 H-ADTN) from membranes from calf-caudate nucleus. [Eur. J. Pharmacol. 55, 137 (1979)].
Bovine brain tissue is homogenized in 50 volumes (based on original tissue weight) of 50 mM Tris-HCl buffer, pH 7.7 at 25° C., using a Brinkman Polytron, setting 6 for 20 seconds. The homogenate is centrifuged at 50,000×g for 10 minutes. The pellet is resuspended in 50 volumes of 50 mM Tris-HCl buffer, pH 7.7 and recentrifuged. The final pellet is resuspended in 200 volumes of incubation media containing: 50 mM Tris-HCl buffer, pH 7.7; 0.1% ascorbic acid; 0.001 mM pargyline; 120 mM NaCl; 5 mM KCl, 2 mM CaCl2 and 1 mM MgCl2.
In the binding assay, triplicate 2 ml samples (equivalent to 5 mg/ml original tissue) of the membrane suspension are incubated for 60 minutes at 25° C. with 0.2 nM ^3 H-ADTN without or in the presence of various concentrations of test compound in solvent. The reaction is terminated by filtering with 5 ml of cold 50 mM Tris-HCl buffer pH 7.7. The filters are placed in scintillation vials with 5 ml of scintillation solution, disrupted by vigorous mechanical shaking for 90 minutes, and counted for radioactivity.
The IC50 values represent the concentration of test compounds required to inhibit the specific binding of 0.2 nM ^3 H-ADTN by 50%, and are determined graphically.

[2] = test system: serotonin receptor; assay: serotonin receptor agonist activity in vivo: decrease in accumulation of 5-hydroxytryptophane in rat brain
Procedure: The serotonin receptor agonist activity is determined in vivo by measuring the decrease in the accumulation of 5-hydroxytryptophane in the brain after administration of a test compound in the rat, as described in J. Med. Chem. 21, 864 (1978).

[3] = target: T1, serotonin receptor (Bos taurus, UniProt F1MGM3); assay: 3H-serotonin binding assay in vitro, calf brain (caudate nuclei) membranes; details: 7 nM 3H-serotonin, 10 minutes at 37° C.
T1 construct: Caudate nuclei are dissected from freshly obtained calf brains; from tissue; host or cells: calf brain caudate nuclei membranes
Procedure: The serotonin binding properties indicative of serotonin agonistic receptor regulating activity of compounds of the invention are determined in the in vitro binding assay as follows:
Membrane suspensions are prepared from calf brain and incubated with ^3 H-serotonin by a modification of the procedure described by Bennett and Snyder. Caudate nuclei are dissected from freshly obtained calf brains; they are frozen and stored at -70° C. for up to 3 months. For each binding experiment, a portion of tissue is homogenized with a Brinkmann Polytron in 50 volumes (w/v) of ice-cold 50 mM Tris-HCl (pH 7.7 at 25° C.) containing 10 mM dithiothreitol. The homogenate is centrifuged twice at 50,000×g for 10 minutes with rehomogenization of the pellet in fresh buffer between spins. The final pellet is homogenized in 100 volumes (based on original tissue weight) cold 50 mM Tris-HCl (pH 7.6 at 25° C.) containing […] pargyline, 0.1% ascorbic acid, 120 mM NaCl, 5 mM KCl, 2 mM CaCl2, 1 mM MgCl2 and 10 mM dithiothreitol. The suspension is warmed in a 37° C. bath for 10 minutes and then returned to ice.
In the binding assay, 2-ml aliquots of the final tissue suspension (equivalent to 20 mg of original wet tissue) are added to tubes (on ice) containing ^3 H-serotonin with or without test compound freshly dissolved in 0.1% ascorbic acid. The final concentration of ^3 H-serotonin is 7 nM. Test compounds are present over a wide range of concentrations, with triplicate tubes for each concentration. Tubes are incubated at 37° C. for 10 minutes and the suspensions are immediately filtered under vacuum through Whatman GF/B glass fiber filters. The filters are washed with 10 ml of cold Tris-HCl (pH 7.7 at 25° C.), placed in scintillation vials with 12 ml of scintillation solution, disrupted by vigorous mechanical shaking for 90 minutes and counted for radioactivity. The IC50 values (concentrations of test compounds required to inhibit the specific binding of 7 nM ^3 H-serotonin by 50%) are determined graphically.

[4] = test system: reserpine-induced hypomotility in the rat; assay: reversal of reserpine-induced hypomotility in the rat; assay type: in vivo; details: ip
From the text: In vivo such selectivity can be determined by measurement of the degree of reversal of reserpine induced hypomotility in the rat. The relative absence of such reversal at effective doses (e.g. in the GBL model) is indicative of selective presynaptic dopamine agonist activity.

[5] = test system: dopamine autoreceptor; assay: rat gamma-butyrolactone (GBL) model, inhibition of GBL-induced DOPA accumulation (presynaptic dopamine agonist activity); assay type: in vivo
Procedure: Indicative of potential neuroleptic activity of the compounds of the invention, the in-vivo presynaptic dopamine agonist activity (also called dopamine autoreceptor agonist activity) is determined in the rat gamma-butyrolactone (GBL) model by a modification of the procedure described by Walters and Roth, Naunyn Schmiedeberg's Arch. Pharmacol. 296, 5 (1976). In this model, a presynaptic dopamine agonist inhibits the GBL-induced accumulation of the dopamine precursor DOPA after pretreatment with 3-hydroxybenzylhydrazine (NSD-1015), a DOPA decarboxylase inhibitor.
Test compounds are dissolved in 0.9% saline, with sodium metabisulfite to prevent oxidation, if required. […] Dihydroxyphenylalanine (DOPA) is analyzed by High Pressure Liquid Chromatography/Electrochemistry (HPLC/EC) techniques using a Bio-analytical Systems (BAS) Model LC-150 series Liquid Chromatograph. […] Compounds are detected with an electro-chemical detector having an oxidizing potential of 0.7 volts and sensitivity setting of 20 nAmps/V. Tissue concentrations and recoveries are calculated by using the internal standard dihydroxybenzylamine (DHBA). […] Data is statistically analysed by one-way Analysis of Variance with Duncan's Multiple Comparison Test. The activity of the test compounds is determined as the percent inhibition of DOPA accumulation at a given dose. […]

T1 sequence (F1MGM3 1-403): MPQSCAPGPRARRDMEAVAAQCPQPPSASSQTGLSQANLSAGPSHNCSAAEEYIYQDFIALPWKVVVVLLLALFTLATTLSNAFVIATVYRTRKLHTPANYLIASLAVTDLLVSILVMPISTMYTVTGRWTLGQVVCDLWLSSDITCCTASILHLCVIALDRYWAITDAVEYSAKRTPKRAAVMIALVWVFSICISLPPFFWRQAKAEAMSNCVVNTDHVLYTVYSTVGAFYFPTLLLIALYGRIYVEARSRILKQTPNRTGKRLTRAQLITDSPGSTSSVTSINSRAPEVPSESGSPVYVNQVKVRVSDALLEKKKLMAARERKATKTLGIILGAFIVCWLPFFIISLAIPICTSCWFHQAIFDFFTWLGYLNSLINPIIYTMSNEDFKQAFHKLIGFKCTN

Structure (SMILES) | IC50 [1] [nM] | IC50 [3] [nM] | further results
CCCCN1CCC[C@@H]2c3cccc(O)c3OC[C@H]21 (relative stereo) [trans-4-butyl-7-hydroxy-1,2,3,4a,5,10b-hexahydro-4H-[1]-benzopyran-[3,4-b]pyridine hydrochloride] | ~20 | – | –
Cc1ccc2c(c1O)OC[C@@H]1[C@@H]2CCCN1C.Cl (relative stereo) [trans-7-hydroxy-4,8-dimethyl-1,2,3,4a,5,10b-hexahydro-4H-[1]-benzopyrano[3,4-b]pyridine hydrochloride] | – | – | decrease of accumulation of 5-hydroxytryptophane in the frontoparietal cortex of rat brain (in words) ([2]; dose of 0.1 mg/Kg, compared with about 25% decrease of the 8-bromo-7-methoxy-4-methyl compound): similarly effective
CCCN1CCC[C@@H]2c3cccc(O)c3OC[C@H]21 (relative stereo) [trans-7-hydroxy-4-propyl-1,2,3,4a,5,10b-hexahydro-4H-[1]-benzopyrano[3,4-b]pyridine hydrochloride] | ~60 | – | –
COc1cccc2c1OC[C@@H]1[C@@H]2CCCN1C (relative stereo) [trans-7-methoxy-4-methyl-1,2,3,4a,5,10b-hexahydro-4H-[1]-benzopyrano[3,4-b]pyridine hydrochloride] | – | ~80 | –
COc1c(Br)ccc2c1OC[C@@H]1[C@@H]2CCCN1C.Cl (relative stereo) [trans-8-bromo-7-methoxy-4-methyl-1,2,3,4a,5,10b-hexahydro-4H-[1]-benzopyrano[3,4-b]pyridine hydrochloride] | – | ~20 | decrease of accumulation of 5-hydroxytryptophane in the frontoparietal cortex of rat brain ([2]; 2.5 mg/kg s.c.): about 25%
CCCN1CCC[C@@H]2c3cc(O)ccc3OC[C@H]21.Cl (relative stereo) [trans-9-hydroxy-4-propyl-1,2,3,4a,5,10b-hexahydro-4H-[1]-benzopyrano[3,4-b]pyridine hydrochloride] | ~30 | – | ED50 [4]: ~10 mg/kg; ED50 ([5]; ip, read-out: ED50 in the GBL model (dose at which DOPA accumulation is inhibited by 50%)): ~0.16 mg/kg; activity in the GBL model orally ([5]; oral, dose of about 0.5 mg/kg): active
CN1CCC[C@@H]2c3c(O)cccc3OC[C@H]21 (relative stereo) [trans-10-hydroxy-4-methyl-1,2,3,4a,5,10b-hexahydro-4H-[1]-benzopyrano[3,4-b]pyridine hydrochloride] | – | ~400 | –
CCCN1CCC[C@@H]2c3c(OC)cccc3OC[C@H]21 (relative stereo) [trans-10-methoxy-4-propyl-1,2,3,4a,5,10b-hexahydro-4H-[1]-benzopyrano[3,4-b]pyridine hydrochloride] | – | ~20 | –
CCCN1CCC=C2c3cc(O)ccc3SCC21 (stereo not shown) [9-hydroxy-4-propyl-2,3,4a,5-tetrahydro-4H-[1]-benzothiopyrano[3,4-b]pyridine hydrochloride] | ~10 | – | –
